{"source": "patent US20070049564A1", "about": "(Wyeth, priority 2005, published 2007)", "key": {"E. coli GC 3226": {"tested_on": "E. coli GC 3226", "assay": "MIC, broth microdilution", "conditions": "Escherichia coli"}, "S. typhimurium GC 2172": {"tested_on": "S. typhimurium GC 2172", "assay": "MIC, broth microdilution", "conditions": "Salmonella enterica, TYPHIMURIUM"}, "S. aureus GC 6467": {"tested_on": "S. aureus GC 6467", "assay": "MIC, broth microdilution", "conditions": "Staphylococcus aureus"}, "E. faecalis GC 2265": {"tested_on": "E. faecalis GC 2265", "assay": "MIC, broth microdilution", "conditions": "Enterococcus faecalis"}, "S. aureus GC 4536": {"tested_on": "S. aureus GC 4536", "assay": "MIC, broth microdilution", "conditions": "Staphylococcus aureus"}, "E. coli": {"tested_on": "E. coli", "assay": "Range of MIC for E. coli strains", "conditions": "Escherichia coli"}, "E. coli GC 2203": {"tested_on": "E. coli GC 2203", "assay": "MIC, broth microdilution", "conditions": "Escherichia coli"}, "Staph.": {"tested_on": "Staph.", "assay": "Range of MIC for Staph. strains, including MRSA", "conditions": "Staphylococcus aureus"}, "E. faecalis GC 4555": {"tested_on": "E. faecalis GC 4555", "assay": "MIC, broth microdilution", "conditions": "Enterococcus faecalis"}, "E. coli GC 6465": {"tested_on": "E. coli GC 6465", "assay": "MIC, broth microdilution", "conditions": "Escherichia coli"}, "E. coli GC 2232": {"tested_on": "E. coli GC 2232", "assay": "MIC, broth microdilution", "conditions": "Escherichia coli"}, "E. coli GC 4560": {"tested_on": "E. coli GC 4560", "assay": "MIC, broth microdilution", "conditions": "Escherichia coli"}, "S. pneumoniae* GC 4465": {"tested_on": "S. pneumoniae* GC 4465", "assay": "MIC, broth microdilution", "conditions": "Streptococcus pneumoniae"}, "E. faecalis GC 2267": {"tested_on": "E. faecalis GC 2267", "assay": "MIC, broth microdilution", "conditions": "Enterococcus faecalis"}, "S. agalactiae GC 4564": {"tested_on": "S. agalactiae GC 4564", "assay": "MIC, broth microdilution", "conditions": "Streptococcus agalactiae"}, "E. coli GC 2272": {"tested_on": "E. coli GC 2272", "assay": "MIC, broth microdilution", "conditions": "Escherichia coli"}, "S. aureus GC 6469": {"tested_on": "S. aureus GC 6469", "assay": "MIC, broth microdilution", "conditions": "Staphylococcus aureus"}, "E. faecium GC 2243": {"tested_on": "E. faecium GC 2243", "assay": "MIC, broth microdilution", "conditions": "Enterococcus faecium"}, "S. aureus GC 6466": {"tested_on": "S. aureus GC 6466", "assay": "MIC, broth microdilution", "conditions": "Staphylococcus aureus"}, "E. coli GC 2231": {"tested_on": "E. coli GC 2231", "assay": "MIC, broth microdilution", "conditions": "Escherichia coli"}, "[1]": {"conditions": "read-out: MINIMAL INHIBITORY CONCENTRATION MIC, pre-incubated in Mouse Serum"}, "[2]": {"conditions": "read-out: MINIMAL INHIBITORY CONCENTRATION MIC, pre-incubated in Water"}}, "note": "Read-outs that look alike come from different tables or passages of the source."}
{"smiles": "CCCN(CC(=O)Nc1cc(N(C)C)c2c(c1O)C(=O)C1=C(O)[C@]3(O)C(=O)C(C(N)=O)=C(O)[C@@H](N(C)C)[C@@H]3C[C@@H]1C2)C(=O)OCOC(=O)c1ccsc1", "note": "[Example 27, ({[(2-{[(5aR,6aS,7S,10aS)-9-(aminocarbonyl)-4,7-bis(dimethylamino)-1,8,10a,11-tetrahydroxy-10,12-dioxo-5,5a,6,6a,7,10,10a,12-octahydrotetracen-2-yl]amino}-2-oxoethyl)(propyl)amino]carbonyl}oxy)methyl thiophene-3-carboxylate]", "values": [{"measurement": "MIC", "setting": "E. coli GC 3226; GC3226, read-out: MINIMAL INHIBITORY CONCENTRATION MIC, pre-incubated in Mouse Serum", "value": 0.5, "unit": "µg/mL"}, {"measurement": "MIC", "setting": "E. coli GC 3226; GC3226, read-out: MINIMAL INHIBITORY CONCENTRATION MIC, pre-incubated in Water", "value": "> 64", "unit": "µg/mL"}, {"measurement": "MIC", "setting": "S. typhimurium GC 2172; [1]", "value": 4, "unit": "µg/mL"}, {"measurement": "MIC", "setting": "S. typhimurium GC 2172; [2]", "value": "> 64", "unit": "µg/mL"}, {"measurement": "MIC", "setting": "S. aureus GC 6467; GC6467, read-out: MINIMAL INHIBITORY CONCENTRATION MIC, pre-incubated in Mouse Serum", "value": 2, "unit": "µg/mL"}, {"measurement": "MIC", "setting": "S. aureus GC 6467; GC6467, read-out: MINIMAL INHIBITORY CONCENTRATION MIC, pre-incubated in Water", "value": 2, "unit": "µg/mL"}, {"measurement": "MIC", "setting": "E. faecalis GC 2265; GC2265, read-out: MINIMAL INHIBITORY CONCENTRATION MIC, pre-incubated in Mouse Serum", "value": 1, "unit": "µg/mL"}, {"measurement": "MIC", "setting": "E. faecalis GC 2265; GC2265, read-out: MINIMAL INHIBITORY CONCENTRATION MIC, pre-incubated in Water", "value": 2, "unit": "µg/mL"}, {"measurement": "MIC", "setting": "S. aureus GC 4536; GC4536, read-out: MINIMAL INHIBITORY CONCENTRATION MIC, pre-incubated in Mouse Serum", "value": 0.12, "unit": "µg/mL"}, {"measurement": "MIC", "setting": "S. aureus GC 4536; GC4536, read-out: MINIMAL INHIBITORY CONCENTRATION MIC, pre-incubated in Water", "value": 0.12, "unit": "µg/mL"}, {"measurement": "MIC", "setting": "E. coli; 20 h, read-out: Range of MIC, E. coli (Mouse Serum)", "value": "0.5 to 1", "unit": "µg/mL"}, {"measurement": "MIC", "setting": "E. coli; read-out: Minimum inhibitory concentration (MIC), E. coli (Human Serum)", "value": "4 to 16", "unit": "µg/mL"}, {"measurement": "MIC", "setting": "E. coli; read-out: Range of MIC, E. coli (mouse serum)", "value": "0.5 to 1", "unit": "µg/mL"}, {"measurement": "MIC", "setting": "E. coli GC 2203; GC2203, read-out: MINIMAL INHIBITORY CONCENTRATION MIC, pre-incubated in Mouse Serum", "value": 0.5, "unit": "µg/mL"}, {"measurement": "MIC", "setting": "E. coli GC 2203; GC2203, read-out: MINIMAL INHIBITORY CONCENTRATION MIC, pre-incubated in Water", "value": "> 64", "unit": "µg/mL"}, {"measurement": "MIC", "setting": "Staph.; MRSA, read-out: Range of MIC, Staph (Mouse Serum)", "value": "0.12 to 2", "unit": "µg/mL"}, {"measurement": "MIC", "setting": "Staph.; MRSA, read-out: Range of MIC, Staph (Water)", "value": "0.12 to 2", "unit": "µg/mL"}, {"measurement": "MIC", "setting": "Staph.; MRSA, read-out: Range of MIC, Staph. (mouse serum)", "value": "0.12 to 2", "unit": "µg/mL"}, {"measurement": "MIC", "setting": "Staph.; MRSA, read-out: Range of MIC, Staph. (water)", "value": "0.12 to 2", "unit": "µg/mL"}, {"measurement": "MIC", "setting": "Staph.; read-out: Minimum inhibitory concentration (MIC), Staph (Human Serum)", "value": "0.25 to 2", "unit": "µg/mL"}, {"measurement": "MIC", "setting": "Staph.; read-out: Minimum inhibitory concentration (MIC), Staph (Water)", "value": "0.5 to 4", "unit": "µg/mL"}, {"measurement": "MIC", "setting": "E. faecalis GC 4555; GC4555, read-out: MINIMAL INHIBITORY CONCENTRATION MIC, pre-incubated in Mouse Serum", "value": 0.25, "unit": "µg/mL"}, {"measurement": "MIC", "setting": "E. faecalis GC 4555; GC4555, read-out: MINIMAL INHIBITORY CONCENTRATION MIC, pre-incubated in Water", "value": 1, "unit": "µg/mL"}, {"measurement": "MIC", "setting": "E. coli GC 6465; GC6465, read-out: MINIMAL INHIBITORY CONCENTRATION MIC, pre-incubated in Mouse Serum", "value": 4, "unit": "µg/mL"}, {"measurement": "MIC", "setting": "E. coli GC 6465; GC6465, read-out: MINIMAL INHIBITORY CONCENTRATION MIC, pre-incubated in Water", "value": "> 64", "unit": "µg/mL"}, {"measurement": "MIC", "setting": "E. coli GC 2232; GC2232, read-out: MINIMAL INHIBITORY CONCENTRATION MIC, pre-incubated in Mouse Serum", "value": 0.5, "unit": "µg/mL"}, {"measurement": "MIC", "setting": "E. coli GC 2232; GC2232, read-out: MINIMAL INHIBITORY CONCENTRATION MIC, pre-incubated in Water", "value": 64, "unit": "µg/mL"}, {"measurement": "MIC", "setting": "E. coli GC 4560; GC4560, read-out: MINIMAL INHIBITORY CONCENTRATION MIC, pre-incubated in Mouse Serum", "value": 0.25, "unit": "µg/mL"}, {"measurement": "MIC", "setting": "E. coli GC 4560; GC4560, read-out: MINIMAL INHIBITORY CONCENTRATION MIC, pre-incubated in Water", "value": 1, "unit": "µg/mL"}, {"measurement": "MIC", "setting": "S. pneumoniae* GC 4465; [1]", "value": "< 0.06", "unit": "µg/mL"}, {"measurement": "MIC", "setting": "S. pneumoniae* GC 4465; [2]", "value": "< 0.06", "unit": "µg/mL"}, {"measurement": "MIC", "setting": "E. faecalis GC 2267; GC2267, read-out: MINIMAL INHIBITORY CONCENTRATION MIC, pre-incubated in Mouse Serum", "value": 1, "unit": "µg/mL"}, {"measurement": "MIC", "setting": "E. faecalis GC 2267; GC2267, read-out: MINIMAL INHIBITORY CONCENTRATION MIC, pre-incubated in Water", "value": 2, "unit": "µg/mL"}, {"measurement": "MIC", "setting": "S. agalactiae GC 4564; GC4564, read-out: MINIMAL INHIBITORY CONCENTRATION MIC, pre-incubated in Mouse Serum", "value": 0.12, "unit": "µg/mL"}, {"measurement": "MIC", "setting": "S. agalactiae GC 4564; GC4564, read-out: MINIMAL INHIBITORY CONCENTRATION MIC, pre-incubated in Water", "value": 0.12, "unit": "µg/mL"}, {"measurement": "MIC", "setting": "E. coli GC 2272; GC2272, read-out: MINIMAL INHIBITORY CONCENTRATION MIC, pre-incubated in Mouse Serum", "value": 0.5, "unit": "µg/mL"}, {"measurement": "MIC", "setting": "E. coli GC 2272; GC2272, read-out: MINIMAL INHIBITORY CONCENTRATION MIC, pre-incubated in Water", "value": 32, "unit": "µg/mL"}, {"measurement": "MIC", "setting": "S. aureus GC 6469; GC6469, read-out: MINIMAL INHIBITORY CONCENTRATION MIC, pre-incubated in Mouse Serum", "value": 1, "unit": "µg/mL"}, {"measurement": "MIC", "setting": "S. aureus GC 6469; GC6469, read-out: MINIMAL INHIBITORY CONCENTRATION MIC, pre-incubated in Water", "value": 2, "unit": "µg/mL"}, {"measurement": "MIC", "setting": "E. faecium GC 2243; GC2243, read-out: MINIMAL INHIBITORY CONCENTRATION MIC, pre-incubated in Mouse Serum", "value": 0.12, "unit": "µg/mL"}, {"measurement": "MIC", "setting": "E. faecium GC 2243; GC2243, read-out: MINIMAL INHIBITORY CONCENTRATION MIC, pre-incubated in Water", "value": 0.25, "unit": "µg/mL"}, {"measurement": "MIC", "setting": "S. aureus GC 6466; GC6466, read-out: MINIMAL INHIBITORY CONCENTRATION MIC, pre-incubated in Mouse Serum", "value": 0.12, "unit": "µg/mL"}, {"measurement": "MIC", "setting": "S. aureus GC 6466; GC6466, read-out: MINIMAL INHIBITORY CONCENTRATION MIC, pre-incubated in Water", "value": 0.25, "unit": "µg/mL"}, {"measurement": "MIC", "setting": "E. coli GC 2231; GC2231, read-out: MINIMAL INHIBITORY CONCENTRATION MIC, pre-incubated in Mouse Serum", "value": 1, "unit": "µg/mL"}, {"measurement": "MIC", "setting": "E. coli GC 2231; GC2231, read-out: MINIMAL INHIBITORY CONCENTRATION MIC, pre-incubated in Water", "value": "> 64", "unit": "µg/mL"}]}
